Experiments:
[1] = test system: Rattus norvegicus; experiment: Anti-inflammatory activity carrageenan-induced paw edema inRattus norvegicus albino (rat) assessed as paw thickness at 9 mg/kg, ip administered 1 hr prior to carrageenan-induced measured 1 hr post challenge; type: functional; settings: route intraperitoneal
[2] = test system: Rattus norvegicus; experiment: Anti-inflammatory activity carrageenan-induced paw edema inRattus norvegicus albino (rat) assessed as paw thickness at 9 mg/kg, ip administered 1 hr prior to carrageenan-induced measured 2 hr post challenge; type: functional; settings: route intraperitoneal
[3] = test system: Rattus norvegicus; experiment: Ulcerogenicity in Rattus norvegicus albino (rat) at 0.9 mg/100 g/day, po qd for 3 successive days; type: toxicity, organism-based; settings: in vivo
[4] = test system: Rattus norvegicus; experiment: Anti-inflammatory activity carrageenan-induced paw edema in Rattus norvegicus albino (rat) at 9 mg/kg, ip administered 1 hr prior to carrageenan-induced measured 1 to 4 hr post challenge relative to control; type: functional; settings: route intraperitoneal
[5] = test system: Rattus norvegicus; experiment: Anti-inflammatory activity carrageenan-induced paw edema in Rattus norvegicus albino (rat) assessed as paw thickness at 9 mg/kg, ip administered 1 hr prior to carrageenan-induced measured 4 hr post challenge; type: functional; settings: route intraperitoneal
[6] = test system: Rattus norvegicus; experiment: Anti-inflammatory activity inRattus norvegicus albino (rat) assessed as reduction in carrageenan-induced paw edema at 10 mg/kg, ip administered 1 hr prior to carrageenan-induced measured 1 to 4 hr post challenge relative to indomethacin; type: functional; design: scale not given: the % may be the effect or the level left; settings: route intraperitoneal
[7] = test system: Rattus norvegicus; experiment: Anti-inflammatory activity carrageenan-induced paw edema inRattus norvegicus albino (rat) assessed as paw thickness at 9 mg/kg, ip administered 1 hr prior to carrageenan-induced measured 3 hr post challenge; type: functional; settings: route intraperitoneal
[8] = test system: Rattus norvegicus; experiment: Ulcerogenicity in Rattus norvegicus albino (rat) at 9 mg/kg/day, po qd for 3 successive days; type: toxicity, organism-based; design: route oral; settings: in vivo
[9] = test system: Rattus norvegicus; experiment: Anti-inflammatory activity carrageenan-induced paw edema in Rattus norvegicus albino (rat) assessed as paw thickness at 10 mg/kg, ip administered 1 hr prior to carrageenan-induced measured 3 hr post challenge; type: functional; settings: route intraperitoneal
[10] = test system: Rattus norvegicus; experiment: Anti-inflammatory activity carrageenan-induced paw edema in Rattus norvegicus albino (rat) assessed as paw thickness at 10 mg/kg, ip administered 1 hr prior to carrageenan-induced measured 1 hr post challenge; type: functional; settings: route intraperitoneal
[11] = test system: Rattus norvegicus; experiment: Anti-inflammatory activity carrageenan-induced paw edema in Rattus norvegicus albino (rat) assessed as paw thickness at 10 mg/kg, ip administered 1 hr prior to carrageenan-induced measured 2 hr post challenge; type: functional; settings: route intraperitoneal
[12] = test system: Rattus norvegicus; experiment: Anti-inflammatory activity carrageenan-induced paw edema in Rattus norvegicus albino (rat) assessed as paw thickness at 10 mg/kg, ip administered 1 hr prior to carrageenan-induced measured 4 hr post challenge; type: functional; settings: route intraperitoneal
[13] = test system: Rattus norvegicus; experiment: Anti-inflammatory activity carrageenan-induced paw edema in Rattus norvegicus albino (rat) at 10 mg/kg, ip administered 1 hr prior to carrageenan-induced measured 1 to 4 hr post challenge relative to control; type: functional; settings: route intraperitoneal

SMILES | Activity [1] [mm] | Activity [2] [mm] | UI [3] | Activity [4] [%] | Activity [5] [mm] | Activity [6] [%] | Activity [7] [mm] | UI [8] | Activity [9] [mm] | Activity [10] [mm] | Activity [11] [mm] | Activity [12] [mm] | Activity [13] [%]
Cc1ccc(NC(=O)Cn2nnc3ccccc3c2=O)cc1 | 2.62 | 3.1 | 140 | 63.23 | 4.12 | 36.7746 | 4 | – | – | – | – | – | –
Cc1ccc(C)n1NC(=O)Cn1nnc2ccccc2c1=O | 3.75 | 4.75 | 220 | 65.95 | 4.25 | 34.046 | 4.75 | – | – | – | – | – | –
Cc1cc(C)n(C(=O)Cn2nnc3ccccc3c2=O)n1 | 2.12 | 2.75 | 140 | 66.69 | 3.75 | 33.313 | 3.5 | – | – | – | – | – | –
Cc1cc(-c2ccccc2)n(C(=O)Cn2nnc3ccccc3c2=O)n1 | 3.25 | 4.37 | 120 | 45.8 | 3.75 | 54.2048 | 4.5 | – | – | – | – | – | –
O=c1c2ccccc2nnn1Cc1nnc(Nc2ccccc2)s1 | 3.75 | 4.2 | 340 | 70.7 | 5.25 | 29.3016 | 4.62 | – | – | – | – | – | –
O=c1c2ccccc2nnn1Cc1nnc(Nc2ccccc2)o1 | 3.75 | 4.2 | 340 | 70.7 | 5.25 | 29.3016 | 4.62 | – | – | – | – | – | –
O=C(Cn1nnc2ccccc2c1=O)N/N=c1/scc(-c2ccccc2)n1-c1ccccc1 | 4 | 4.75 | 300 | 54.06 | 5.12 | 45.9377 | 5 | – | – | – | – | – | –
COc1cccc(NC(=O)Cn2nnc3ccccc3c2=O)c1 | 2.75 | 3.12 | 240 | 61.27 | 3.25 | 38.7294 | 3.25 | – | – | – | – | – | –
COc1ccccc1NC(=O)Cn1nnc2ccccc2c1=O | 3.8 | 5.25 | 210 | 47.8314 | 4.25 | 52.1686 | 4 | – | – | – | – | – | –
Cc1ccccc1NC(=O)Cn1nnc2ccccc2c1=O | 4.4 | 4 | 240 | 66.08 | 4.25 | 33.9238 | 4 | – | – | – | – | – | –
CC(=O)c1ccc(NC(=O)Cn2nnc3ccccc3c2=O)cc1 | 3.87 | 3.87 | 130 | 52.25 | 4.37 | 47.7499 | 3.37 | – | – | – | – | – | –
O=C(Cn1nnc2ccccc2c1=O)Nc1ccccc1 | 4.5 | 4.25 | 300 | 58.22 | 3.8 | 41.7838 | 4.1 | – | – | – | – | – | –
Cc1ccc(-c2cc(C(F)(F)F)nn2-c2ccc(S(N)(=O)=O)cc2)cc1 [CELECOXIB] | 3.22 | 3.37 | – | 42.94 | 3.87 | 57.0556 | 3.75 | 120 | – | – | – | – | –
COc1ccc2c(c1)c(CC(=O)O)c(C)n2C(=O)c1ccc(Cl)cc1 [INDOMETHACIN] | – | – | – | – | – | – | – | 450 | 3.25 | 2.12 | 2.25 | 3.75 | 100

From ChEMBL document CHEMBL3045134, “Synthesis, molecular modeling and anti-inflammatory screening of new 1,2,3-benzotriazinone derivatives” (Med Chem Res, 2012)
